IC50 data for 13 molecules are collected here from patent US7652142B2, “Bipiperidinyl derivatives useful as inhibitors of chemokine receptors” (priority 2003, dated 2010).

As usually defined, the IC50 is the midpoint of a concentration-inhibition curve. A lower IC50 goes with greater potency.

The test system of this test is HIV-1. Put plainly: Luciferase Replication assay. It is filed as cell-based. The note with it: Human immunodeficiency virus 1, U87/CD4/CCR5, 72 h. The protocol:
Luciferase Replication Assay:
Plasmids encoding the full length genome of HIV-1 pNL-4-Luc with the gp 120 V-3 loop replaced by the Bgl II fragment of HIV-1 ADA, YU-2 or HxB (ADA-Luc-FL, YU-2-Luc-FL and HxB-Luc-FL) were obtained from Dr. Susan Pontow (Washington University, St. Louis Mo.). Replication-competent luciferase reporter virus stocks were generated by transfection of plasmids into 293T cells using Superfect (Qiagen) or Mirus transfection reagents. Viral stocks were collected 48 hours following transfection and titered for luciferase production on U-87-CCR5 or CXCR4 cells. U87-CD4-CCR5 cells ([…]) were plated in 96-well cell culture plates and incubated overnight. Media was removed and replaced with 50 μl of fresh culture media (DMEM, 10% FCS) and 50 μl of compound diluted in culture medium. Cells were incubated with compound at 37° C. for 1 hour. The resultant supernatant was removed and replaced with 20 μl of media containing compound and infected with an equal volume of diluted or undiluted virus stock at 37° C. for 3-4 hours. The cells were washed once with DMEM, and 200 μl of media containing compound was added. The cultures were incubated for 3 days, the cells lysed in luciferase lysis buffer (Promega, Madison, Wis.) and transferred to Immulon plates (Dynex Technologies, Chantilly Va.). An equal volume of luciferase substrate (Promega, Madison Wis.) was added to lysates and the plates read immediately in a Wallac Luminometer. Fifty and ninety percent inhibitory concentrations were determined using GraphPad PRISM software.
`Cc1ncnc(C)c1C(=O)N1CCC(C)(N2CCC(N(Cc3ccccc3)c3ccc(CN4CC[C@H](NS(=O)(=O)C5CC5)C4=O)cc3)CC2)CC1` came in with an IC50 of 0.14 nM. That is a sub-nanomolar value. The figure for `Cc1ncnc(C)c1C(=O)N1CCC(C)(N2CCC(N(Cc3ccccc3)c3ccc(CC(=O)N4CCCC4)cc3)CC2)CC1` is 0.13 nM; for `Cc1ncnc(C)c1C(=O)N1CCC(C)(N2CCC(N(Cc3ccccc3)c3ccc(C(C)(C)C(=O)N4CCOCC4)cc3)CC2)CC1` it is 0.14 nM; for `Cc1ncnc(C)c1C(=O)N1CCC(C)(N2CCC(N(Cc3ccccc3)c3ccc(C(C)(C)C(=O)N4CCCCC4)cc3)CC2)CC1` it is 0.18 nM. In turn, `CCNC(=O)Nc1cc(C)c(C(=O)N2CCC(C)(N3CCC(N(Cc4ccccc4)c4ccc(CC(=O)N5CCOCC5)cc4)CC3)CC2)c(C)c1` returned an IC50 of 0.19 nM. Next, `Cc1cc(O)cc(C)c1C(=O)N1CCC(C)(N2CCC(N(Cc3ccccc3)c3ccc(C(C)(C)C(=O)N4CCOCC4)cc3)CC2)CC1`: less than 0.1 nM; `Cc1cc(NS(C)(=O)=O)cc(C)c1C(=O)N1CCC(C)(N2CCC(N(Cc3ccccc3)c3ccc(C(C)(C)C(=O)N4CCOCC4)cc3)CC2)CC1`: 0.16 nM; `Cc1cc(N)cc(C)c1C(=O)N1CCC(C)(N2CCC(N(Cc3ccccc3)c3ccc(C(C)(C)C(=O)N4CCOCC4)cc3)CC2)CC1`: 0.13 nM. Take `Cc1ncnc(C)c1C(=O)N1CCC(C)(N2CCC(N(Cc3ccccc3)c3ccc(CC#N)cc3)CC2)CC1`: the half-inhibitory concentration (IC50) was found to be 0.14 nM. Consider `Cc1ncnc(C)c1C(=O)N1CCC(C)(N2CCC(N(Cc3ccccc3)c3ccc(CNC(=O)[C@H](O)c4ccccc4)cc3)CC2)CC1`, for which the IC50 was found to be 0.19 nM. `CCN(CC)C(=O)[C@@H](O)c1ccc(N(Cc2ccccc2)C2CCN(C3(C)CCN(C(=O)c4c(C)ncnc4C)CC3)CC2)cc1`: the IC50 is 0.16 nM. The figure for `Cc1ncnc(C)c1C(=O)N1CCC(C)(N2CCC(N(Cc3ccccc3)c3ccc(S(=O)(=O)CCO)cc3)CC2)CC1` is 0.17 nM; for `Cc1ncnc(C)c1C(=O)N1CCC(C)(N2CCC(N(Cc3ccccc3)c3ccn(C)c(=O)c3)CC2)CC1` it is 0.15 nM.
